In patent publication US8901301B2, “Pyrrolo[2,3-]pyridine kinase inhibitors” (Plexxikon Inc., priority 2009, dated 2014):

Tests used:
CYP3A4(BQ) = biological target: T1, CYP3A4(BQ) (Homo sapiens, UniProt P08684); experiment: CYP inhibition (fluorescent substrate), CYP3A4(BQ); assay type: in vitro ADME; settings: read-out: Cyp IC50 (μM) 3A4(BQ)
T1 construct: purchased BD Biosciences
Procedure: (§1) CYP (Cytochrome P450) enzymes are the major drug metabolizing enzymes present in the liver. The inhibition of CYP enzyme activity (IC50) for each of CYP1A2, CYP2C19, CYP2C9, CYP2D6, CYP3A4(BFC) and CYP3A4(BQ) is determined for compounds, where inhibition of metabolism of a known substrate leads to a decrease in the fluorescence of the metabolized product. The fluorescence of the product is monitored as a function of compound concentration. Compounds are dissolved in dimethyl sulfoxide to a concentration of 100 mM. These are diluted 1 μL into 82 μL of acetonitrile. An 11 μL aliquot of this solution is then added to 204 μL of cofactor mix (1.3% NADPH Regeneration system Solution A, 1.04% NADPH Regeneration system Solution B from BD Biosciences, 5% acetonitrile and 0.05% dimethyl sulfoxide). These are then serially diluted 1:1 (160 μL to 160 μL co-factor mix) for a total of 10 points. A 10 μL aliquot of this final mixture is dispensed into 384 well assay plates and incubated for 10 minutes at 37° C. […] Assay plates are incubated at 37° C. (CYP1A2-15 min; CYP2C9-45 min; CYP2C19, 2D6 and 3A4-30 min) and read in a Tecan Safire 2 plate reader (CYP1A2, 2C19 and 3A4 409 ex/460 em; CYP2C9 and 2D6 409 ex/530 em). The signal versus compound concentration is used to determine the IC50. The enzymes and substrates for this assay are obtained from BD Biosciences.

PI3Kδ = PI3Kδ (Homo sapiens, UniProt O00329); experiment: Biochemical inhibitory activity, other protein kinases: PI3Kδ; settings: listing of the kinase means IC50 >1 μM
CYP3A4(BFC) = biological target: T2, CYP3A4(BFC) (Homo sapiens, UniProt P08684); experiment: CYP inhibition (fluorescent substrate), CYP3A4(BFC); assay type: in vitro ADME; settings: read-out: Cyp IC50 (μM) 3A4(BFC)
T2 construct: purchased BD Biosciences
Procedure: as §1

PI3Kα = PI3Kα (Homo sapiens, UniProt P42336); experiment: Biochemical inhibitory activity, other protein kinases: PI3Kα; settings: listing of the kinase means IC50 >1 μM
B-Raf = biological target: T3, B-Raf (Homo sapiens, UniProt P15056); experiment: Raf biochemical kinase assay (biotin-MEK1 phosphorylation), B-Raf; settings: 100 μM ATP
T3 construct: purchased Upstate Biotechnology
Procedure: (§2) Assays for biochemical and cell based activity are known in the art, for example, as described in PCT publication WO 2007/002433, the disclosure of which is hereby incorporated by reference as it relates to such assays. For example, the biochemical activity IC50 values are determined with respect to inhibition of A-Raf kinase activity, B-Raf kinase activity, c-Raf-1 kinase activity, or B-Raf V600E kinase activity, where inhibition of phosphorylation of a peptide substrate is measured as a function of compound concentration. Compounds to be tested are diluted in dimethyl sulfoxide to a concentration of 0.1 mM. These are serially diluted 15 μL into 30 μL of dimethyl sulfoxide seven times in 96 well plates for a total of 8 dilution points, and for each dilution point 1 μL is added to a well of an assay plate. Plates are prepared such that each well in a 384 well plate contains 1 μL of compound in 10 μL volume with 0.1 ng Raf enzyme (i.e. any of A-Raf, B-Raf, c-Raf-1 or B-Raf V600E, Upstate Biotechnology or prepared by methods known to one of skill in the art), 50 mM HEPES, pH 7.0, 50 mM NaCl, 2 mM MgCl2, 1 mM MnCl2, 0.01% Tween-20, 1 mM DTT, and 100 nM biotin-MEK1 as substrate. The reaction is started with addition of 10 μL of 200 μM ATP (i.e. final 100 μM ATP). After incubation of the kinase reaction for 45 minutes at room temperature, 5 μL/well of Stop Solution is added (25 mM Hepes pH 7.5, 100 mM EDTA, 0.01% BSA with donor beads (Streptavidin coated beads, Perkin Elmer), acceptor beads (Protein A coated, Perkin Elmer), and anti phosphor MEK1/2 antibody (CellSignal), each at final concentration 10 μg/mL). The plates are incubated for 3 hours at room temperature and read on Envision reader (Perkin Elmer). Phosphorylation of Mek1 results in binding of the anti-phosphor-MEK1/2 antibody and association of the donor and acceptor beads such that signal correlates with kinase activity. The signal vs. compound concentration is used to determine the IC50.

B-Raf V600E = biological target: T4, B-Raf V600E (Homo sapiens, UniProt P15056, V600E); experiment: Raf biochemical kinase assay (biotin-MEK1 phosphorylation), B-Raf V600E; settings: 100 μM ATP
T4 construct: purchased Upstate Biotechnology
Procedure: as §2

Itk = biological target: T5, Itk (Homo sapiens, UniProt Q08881); experiment: Biochemical inhibitory activity, other protein kinases: Itk; settings: listing of the kinase means IC50 >1 μM
T5 sequence (Q08881 1-620): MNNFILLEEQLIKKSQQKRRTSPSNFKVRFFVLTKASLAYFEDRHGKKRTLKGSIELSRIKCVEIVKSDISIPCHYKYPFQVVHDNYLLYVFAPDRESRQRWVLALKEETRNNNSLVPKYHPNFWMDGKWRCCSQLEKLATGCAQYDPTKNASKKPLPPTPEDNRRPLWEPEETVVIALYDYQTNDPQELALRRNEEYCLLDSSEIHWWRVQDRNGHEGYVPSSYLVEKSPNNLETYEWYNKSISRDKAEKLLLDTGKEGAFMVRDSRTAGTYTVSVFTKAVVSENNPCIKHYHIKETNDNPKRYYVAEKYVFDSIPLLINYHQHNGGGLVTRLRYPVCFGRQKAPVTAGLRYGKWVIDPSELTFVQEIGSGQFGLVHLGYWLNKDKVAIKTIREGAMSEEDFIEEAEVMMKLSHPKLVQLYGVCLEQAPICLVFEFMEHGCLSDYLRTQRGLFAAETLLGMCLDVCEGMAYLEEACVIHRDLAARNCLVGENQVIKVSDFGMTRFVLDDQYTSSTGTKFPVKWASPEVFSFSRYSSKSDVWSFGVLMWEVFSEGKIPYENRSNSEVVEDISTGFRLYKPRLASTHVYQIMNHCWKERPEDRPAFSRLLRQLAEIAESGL

mTor = mTor (Homo sapiens, UniProt P42345); experiment: Biochemical inhibitory activity, other protein kinases: mTor; settings: listing of the kinase means IC50 >1 μM
Jnk1 = Jnk1 (Homo sapiens, UniProt P45983); experiment: Biochemical inhibitory activity, other protein kinases: Jnk1; settings: listing of the kinase means IC50 >1 μM
[1] = Relative solubility by turbidity in aqueous buffers; assay type: physicochemical; settings: pH 1.4 as headed (Simulated Gastric Fluid)
MAPKAPK2 = MAPKAPK2 (Homo sapiens, UniProt P49137); experiment: Biochemical inhibitory activity, other protein kinases: MAPKAPK2; settings: listing of the kinase means IC50 >1 μM
Brk = Brk (Homo sapiens, UniProt Q13882); experiment: Biochemical inhibitory activity, other protein kinases: Brk; settings: listing of the kinase means IC50 <1 μM
TrkA = TrkA (Homo sapiens, UniProt P04629); experiment: Biochemical inhibitory activity, other protein kinases: TrkA; settings: listing of the kinase means IC50 >1 μM
Chain of TrkA (P04629 33-796, species assumed): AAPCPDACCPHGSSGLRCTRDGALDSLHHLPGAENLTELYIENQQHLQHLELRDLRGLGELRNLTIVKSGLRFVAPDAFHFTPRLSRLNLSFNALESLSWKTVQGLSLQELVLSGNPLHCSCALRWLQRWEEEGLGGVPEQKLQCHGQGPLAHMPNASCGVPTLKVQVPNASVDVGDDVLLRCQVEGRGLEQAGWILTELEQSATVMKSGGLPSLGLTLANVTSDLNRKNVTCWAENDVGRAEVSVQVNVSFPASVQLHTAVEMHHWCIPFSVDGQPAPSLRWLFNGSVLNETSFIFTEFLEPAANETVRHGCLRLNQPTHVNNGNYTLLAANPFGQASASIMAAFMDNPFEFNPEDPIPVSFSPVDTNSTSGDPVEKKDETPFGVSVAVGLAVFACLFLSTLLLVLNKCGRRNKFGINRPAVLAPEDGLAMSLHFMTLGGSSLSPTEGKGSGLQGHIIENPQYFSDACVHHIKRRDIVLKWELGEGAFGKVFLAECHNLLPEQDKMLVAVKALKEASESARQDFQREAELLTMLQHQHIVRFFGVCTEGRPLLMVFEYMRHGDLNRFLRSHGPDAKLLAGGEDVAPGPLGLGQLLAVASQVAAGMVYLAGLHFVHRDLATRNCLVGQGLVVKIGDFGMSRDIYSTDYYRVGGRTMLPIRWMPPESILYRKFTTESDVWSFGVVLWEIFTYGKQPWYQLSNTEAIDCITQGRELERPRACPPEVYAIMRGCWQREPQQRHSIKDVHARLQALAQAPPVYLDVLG

T2 sequence (P08684 whole entry): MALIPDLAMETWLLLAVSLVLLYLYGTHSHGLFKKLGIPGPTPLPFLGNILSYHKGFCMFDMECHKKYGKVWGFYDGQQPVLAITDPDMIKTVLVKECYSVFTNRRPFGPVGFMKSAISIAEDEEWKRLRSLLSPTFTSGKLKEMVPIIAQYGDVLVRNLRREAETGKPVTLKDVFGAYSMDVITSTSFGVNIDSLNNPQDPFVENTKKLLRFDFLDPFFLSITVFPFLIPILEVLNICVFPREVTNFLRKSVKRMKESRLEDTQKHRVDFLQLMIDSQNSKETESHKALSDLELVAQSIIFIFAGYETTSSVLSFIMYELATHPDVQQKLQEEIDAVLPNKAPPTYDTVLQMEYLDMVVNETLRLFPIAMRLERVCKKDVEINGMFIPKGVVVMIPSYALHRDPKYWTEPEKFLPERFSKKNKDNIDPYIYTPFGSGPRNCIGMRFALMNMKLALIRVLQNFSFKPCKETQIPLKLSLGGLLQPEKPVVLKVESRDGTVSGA
T1 sequence (P08684 whole entry): as above
T4 sequence (P15056 whole entry V600E): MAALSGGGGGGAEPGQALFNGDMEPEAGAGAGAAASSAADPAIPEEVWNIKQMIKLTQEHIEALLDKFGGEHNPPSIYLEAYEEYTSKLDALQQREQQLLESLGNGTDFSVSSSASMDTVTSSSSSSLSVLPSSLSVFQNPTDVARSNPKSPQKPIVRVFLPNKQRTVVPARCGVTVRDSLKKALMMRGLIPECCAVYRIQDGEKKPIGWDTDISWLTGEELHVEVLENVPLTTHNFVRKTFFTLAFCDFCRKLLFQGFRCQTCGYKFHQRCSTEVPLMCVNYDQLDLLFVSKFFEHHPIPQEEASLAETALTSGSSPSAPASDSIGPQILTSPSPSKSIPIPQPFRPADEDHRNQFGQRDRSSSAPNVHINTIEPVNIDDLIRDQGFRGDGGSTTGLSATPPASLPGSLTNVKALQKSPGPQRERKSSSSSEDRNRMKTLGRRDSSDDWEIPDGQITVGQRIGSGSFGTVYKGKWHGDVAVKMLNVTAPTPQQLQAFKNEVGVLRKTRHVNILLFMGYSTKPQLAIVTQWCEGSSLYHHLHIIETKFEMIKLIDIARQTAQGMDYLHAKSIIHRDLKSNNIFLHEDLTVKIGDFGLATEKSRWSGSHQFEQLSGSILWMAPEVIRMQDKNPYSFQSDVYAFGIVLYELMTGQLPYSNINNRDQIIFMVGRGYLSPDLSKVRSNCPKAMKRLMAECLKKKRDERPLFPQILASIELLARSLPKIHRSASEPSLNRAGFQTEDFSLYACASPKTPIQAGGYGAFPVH
Chain of MAPKAPK2 (P49137 whole entry, species assumed): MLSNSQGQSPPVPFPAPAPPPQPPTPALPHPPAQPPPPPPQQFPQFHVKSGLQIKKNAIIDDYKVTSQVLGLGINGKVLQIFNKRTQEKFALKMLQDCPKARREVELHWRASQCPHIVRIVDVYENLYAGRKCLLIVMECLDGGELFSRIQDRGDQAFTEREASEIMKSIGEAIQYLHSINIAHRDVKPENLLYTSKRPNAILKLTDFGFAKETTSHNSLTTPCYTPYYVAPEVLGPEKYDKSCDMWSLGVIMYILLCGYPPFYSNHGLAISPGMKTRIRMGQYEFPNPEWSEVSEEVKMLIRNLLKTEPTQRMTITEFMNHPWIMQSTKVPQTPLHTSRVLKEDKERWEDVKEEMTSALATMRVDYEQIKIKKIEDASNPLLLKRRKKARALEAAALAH
T3 sequence (P15056 whole entry): as the sequence (P15056 whole entry V600E) above, with E600V counted along it
Chain of Jnk1 (P45983 whole entry, species assumed): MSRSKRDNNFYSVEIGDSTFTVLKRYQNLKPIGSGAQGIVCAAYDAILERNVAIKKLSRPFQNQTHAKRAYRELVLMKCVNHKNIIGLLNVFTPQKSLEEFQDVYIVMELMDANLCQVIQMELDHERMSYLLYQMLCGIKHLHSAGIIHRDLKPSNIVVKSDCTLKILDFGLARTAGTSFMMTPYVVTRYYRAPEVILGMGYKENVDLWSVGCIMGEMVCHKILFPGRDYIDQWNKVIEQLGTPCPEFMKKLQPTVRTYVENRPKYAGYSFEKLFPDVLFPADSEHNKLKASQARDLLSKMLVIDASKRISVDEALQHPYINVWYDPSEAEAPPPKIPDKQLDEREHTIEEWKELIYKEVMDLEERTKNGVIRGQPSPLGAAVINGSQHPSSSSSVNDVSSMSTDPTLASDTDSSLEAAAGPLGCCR
Chain of Brk (Q13882 whole entry, species assumed): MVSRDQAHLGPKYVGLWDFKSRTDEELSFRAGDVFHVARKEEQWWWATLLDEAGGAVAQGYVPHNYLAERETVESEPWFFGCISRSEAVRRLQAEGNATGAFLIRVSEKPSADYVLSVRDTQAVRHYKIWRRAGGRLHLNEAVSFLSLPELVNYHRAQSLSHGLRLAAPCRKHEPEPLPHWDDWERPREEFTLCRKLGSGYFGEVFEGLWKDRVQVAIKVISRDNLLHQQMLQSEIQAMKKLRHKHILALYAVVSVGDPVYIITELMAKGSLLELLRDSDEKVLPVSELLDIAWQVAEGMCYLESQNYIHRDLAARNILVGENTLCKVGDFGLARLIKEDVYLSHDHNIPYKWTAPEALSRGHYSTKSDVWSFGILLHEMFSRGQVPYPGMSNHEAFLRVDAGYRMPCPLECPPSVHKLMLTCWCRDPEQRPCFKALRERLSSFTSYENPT

SMILES	IC50 (CYP3A4(BQ))	Kinase having IC50 of >1 μM (PI3Kδ)	IC50 (CYP3A4(BFC))	Kinase having IC50 of >1 μM (PI3Kα)	IC50 (B-Raf)	IC50 (B-Raf V600E)	Kinase having IC50 of >1 μM (Itk)	Kinase having IC50 of >1 μM (mTor)	Kinase having IC50 of >1 μM (Jnk1)	turbidity threshold (L, M, H) 1.4 [1]	Kinase having IC50 of >1 μM (MAPKAPK2)	Kinase having IC50 of <1 μM (Brk)	Kinase having IC50 of >1 μM (TrkA)
CCCS(=O)(=O)Nc1ccc(F)c(C(=O)c2c[nH]c3ncc(-c4cnc(OC)nc4)cc23)c1F [Compound P-0001, propane-1-sulfonic acid {2,4-difluoro-3-[5-(2-methoxy-pyrimidin-5-yl)-1H-pyrrolo[2,3-b]pyridine-3-carbonyl]-phenyl}-amide]	> 10 µM	PI3Kδ	> 10 µM	PI3Kα	< 0.1 µM	< 0.01 µM	Itk	mTor	Jnk1	M (moderate solubility if the threshold concentration is 31.3 μM to 250 μM)	MAPKAPK2	Brk	
CCCS(=O)(=O)Nc1ccc(F)c(C(=O)c2c[nH]c3ncc(C#N)cc23)c1F [Compound P-0002, propane-1-sulfonic acid [3-(5-cyano-1H-pyrrolo[2,3-b]pyridine-3-carbonyl)-2,4-difluoro-phenyl]-amide]	> 10 µM		> 10 µM		< 0.1 µM	< 0.01 µM	Itk			M (moderate solubility if the threshold concentration is 31.3 μM to 250 μM)	MAPKAPK2	Brk	TrkA
CCCS(=O)(=O)Nc1cccc(C(=O)c2c[nH]c3ncc(C#N)cc23)c1F [Compound P-0003, propane-1-sulfonic acid [3-(5-cyano-1H-pyrrolo[2,3-b]pyridine-3-carbonyl)-2-fluoro-phenyl]-amide]	> 10 µM		> 10 µM		< 1 µM	~0.1 µM				M (moderate solubility if the threshold concentration is 31.3 μM to 250 μM)	MAPKAPK2		TrkA
N#Cc1cnc2[nH]cc(C(=O)c3c(F)ccc(NS(=O)(=O)c4cc(F)ccc4F)c3F)c2c1 [Compound P-0004, N-[3-(5-cyano-1H-pyrrolo[2,3-b]pyridine-3-carbonyl)-2,4-difluoro-phenyl]-2,5-difluoro-benzenesulfonamide]	5 to 10 µM		5 to 10 µM		< 0.1 µM	< 0.01 µM	Itk		Jnk1	M (moderate solubility if the threshold concentration is 31.3 μM to 250 μM)			
N#Cc1cnc2[nH]cc(C(=O)c3c(F)ccc(NS(=O)(=O)c4cccc(F)c4)c3F)c2c1 [Compound P-0005, N-[3-(5-cyano-1H-pyrrolo[2,3-b]pyridine-3-carbonyl)-2,4-difluoro-phenyl]-3-fluoro-benzenesulfonamide]	5 to 10 µM		> 10 µM		< 0.01 µM	< 0.01 µM	Itk		Jnk1	M (moderate solubility if the threshold concentration is 31.3 μM to 250 μM)			
N#Cc1cnc2[nH]cc(C(=O)c3c(F)ccc(NS(=O)(=O)N4CCCC4)c3F)c2c1 [Compound P-0006, pyrrolidine-1-sulfonic acid [3-(5-cyano-1H-pyrrolo[2,3-b]pyridine-3-carbonyl)-2,4-difluoro-phenyl]-amide]	> 10 µM		> 10 µM		< 0.1 µM	< 0.01 µM				M (moderate solubility if the threshold concentration is 31.3 μM to 250 μM)	MAPKAPK2		
CN(C)S(=O)(=O)Nc1ccc(F)c(C(=O)c2c[nH]c3ncc(C#N)cc23)c1F [Compound P-0007, N,N-dimethylamino-sulfonic acid [3-(5-cyano-1H-pyrrolo[2,3-b]pyridine-3-carbonyl)-2,4-difluoro-phenyl]-amide]	< 5 µM		5 to 10 µM		< 1 µM	< 0.01 µM	Itk		Jnk1	M (moderate solubility if the threshold concentration is 31.3 μM to 250 μM)	MAPKAPK2		
